A short description of test [1]: Vasorelaxant activity against depolarization-induced basilar artery constriction in white rabbit. The class given is functional, tissue-based, Oryctolagus cuniculus.
Test [2] in a line: Vasorelaxant activity against depolarization-induced carotid artery constriction in white rabbit. In kind it is functional, tissue-based, Oryctolagus cuniculus.

Take `CC(=O)CC/C=C(\C)CCC/C(C)=C/C(=O)CC(C)C`: the results for the EC50 in test [1] and in test [2] were 1.22 µM and 13.7 µM, respectively.

On to `CC(=O)CC/C=C(\C)CCC/C(C)=C\C(=O)CC(C)C`, for which the concentration for a half-maximal effect (EC50) in test [1] was determined as 3.72 µM; in test [2] it was 14.5 µM.

Values taken from ChEMBL document CHEMBL1152206, “Vasodilatation effect of farnesylacetones, active constituents of Sargassum siliquastrum, on the basilar and carotid arteries of rabbits” (Bioorg Med Chem Lett, 2008).
